ChEMBL document CHEMBL1687837, “Roles of residues Cys69, Asn104, Phe160, Gly232, Ser237, and Asp240 in extended-spectrum beta-lactamase Toho-1” (2011)
Values after ≈ are worked out from the molar mass of the structure shown.

Key:
Escherichia coli [1] = assay: Activity of Escherichia coli beta-lactamase Toho-1 N104D mutant assessed as compound hydrolysis by spectrophotometry
Escherichia coli [2] = assay: Activity of Escherichia coli beta-lactamase Toho-1 […] mutant assessed as compound hydrolysis by spectrophotometry
Escherichia coli [3] = assay: Activity of Escherichia coli beta-lactamase Toho-1 N104A mutant assessed as compound hydrolysis by spectrophotometry
Escherichia coli [4] = assay: Activity of Escherichia coli beta-lactamase Toho-1 D240S mutant assessed as compound hydrolysis by spectrophotometry
Escherichia coli [5] = assay: Activity of Escherichia coli beta-lactamase Toho-1 D240A mutant assessed as compound hydrolysis by spectrophotometry
Escherichia coli [6] = assay: Activity of Escherichia coli beta-lactamase Toho-1 C69A mutant assessed as compound hydrolysis by spectrophotometry
Escherichia coli [7] = assay: Activity of Escherichia coli beta-lactamase Toho-1 F160T mutant assessed as compound hydrolysis by spectrophotometry
Escherichia coli [8] = assay: Activity of Escherichia coli beta-lactamase Toho-1 G232A mutant assessed as compound hydrolysis by spectrophotometry
Escherichia coli [9] = assay: Ratio of Kcat to Km for Escherichia coli beta-lactamase Toho-1 N104A mutant assessed as compound hydrolysis by spectrophotometry
Escherichia coli [10] = assay: Ratio of Kcat to Km for Escherichia coli beta-lactamase Toho-1 N104D mutant assessed as compound hydrolysis by spectrophotometry
Escherichia coli [11] = assay: Ratio of Kcat to Km for Escherichia coli beta-lactamase Toho-1 […] mutant assessed as compound hydrolysis by spectrophotometry
Escherichia coli [12] = assay: Ratio of Kcat to Km for Escherichia coli beta-lactamase Toho-1 D240S mutant assessed as compound hydrolysis by spectrophotometry
Escherichia coli [13] = assay: Ratio of Kcat to Km for Escherichia coli beta-lactamase Toho-1 D240A mutant assessed as compound hydrolysis by spectrophotometry
Escherichia coli [14] = assay: Ratio of Kcat to Km for Escherichia coli beta-lactamase Toho-1 C69A mutant assessed as compound hydrolysis by spectrophotometry
Escherichia coli [15] = assay: Ratio of Kcat to Km for Escherichia coli beta-lactamase Toho-1 F160T mutant assessed as compound hydrolysis by spectrophotometry
Escherichia coli [16] = assay: Ratio of Kcat to Km for Escherichia coli beta-lactamase Toho-1 G232A mutant assessed as compound hydrolysis by spectrophotometry
Escherichia coli [17] = assay: Antibacterial activity against Escherichia coli AS226 carrying pBSD-H2 after 18 hrs by broth microdilution method; assay type: functional; conditions: AS226, 18 h
Escherichia coli [18] = assay: Antibacterial activity against Escherichia coli AS226 carrying pBSDN104A mutant after 18 hrs by broth microdilution method; assay type: functional; conditions: AS226, 18 h
Escherichia coli [19] = assay: Antibacterial activity against Escherichia coli AS226 carrying pBSDN104D mutant after 18 hrs by broth microdilution method; assay type: functional; conditions: AS226, 18 h
Escherichia coli [20] = assay: Antibacterial activity against Escherichia coli AS226 carrying pBSDS237A mutant after 18 hrs by broth microdilution method; assay type: functional; conditions: AS226, 18 h
Escherichia coli [21] = assay: Antibacterial activity against Escherichia coli AS226 carrying pBSDD240S mutant after 18 hrs by broth microdilution method; assay type: functional; conditions: AS226, 18 h
Escherichia coli [22] = assay: Antibacterial activity against Escherichia coli AS226 carrying pBSDD240A mutant after 18 hrs by broth microdilution method; assay type: functional; conditions: AS226, 18 h
Escherichia coli [23] = assay: Antibacterial activity against Escherichia coli AS226 carrying pBSDC69A mutant after 18 hrs by broth microdilution method; assay type: functional; conditions: AS226, 18 h
Escherichia coli [24] = assay: Antibacterial activity against Escherichia coli AS226 carrying pBSDF160T mutant after 18 hrs by broth microdilution method; assay type: functional; conditions: AS226, 18 h
Escherichia coli [25] = assay: Antibacterial activity against Escherichia coli AS226 carrying pBSD6 mutant after 18 hrs by broth microdilution method; assay type: functional; conditions: AS226, 18 h
Escherichia coli [26] = assay: Antibacterial activity against Escherichia coli AS226 after 18 hrs by broth microdilution method; assay type: functional; conditions: AS226, 18 h
[27] = substrate: CC(=O)OCC1=C(C(=O)O)N2C(=O)[C@@H](NC(=O)Cc3cccs3)[C@H]2SC1; assay: (§1) Activity of Escherichia coli wild type beta-lactamase Toho-1 assessed as compound hydrolysis by spectrophotometry
[28] = substrate: CC1(C)S[C@@H]2[C@H](NC(=O)[C@H](N)c3ccccc3)C(=O)N2[C@H]1C(=O)O; assay: as §1
[29] = substrate: CO/N=C(\C(=O)N[C@@H]1C(=O)N2C(C(=O)O)=C(COC(C)=O)CS[C@H]12)c1csc(N)n1; assay: as §1
[30] = substrate: CO/N=C(\C(=O)N[C@@H]1C(=O)N2C(C(=O)O)=C(CSc3cnns3)CS[C@H]12)c1csc(N)n1; assay: as §1
[31] = substrate: C[C@H]1[C@H](NC(=O)/C(=N\OC(C)(C)C(=O)O)c2csc(N)n2)C(=O)N1S(=O)(=O)O; assay: as §1
[32] = substrate: O=C(Cc1cccs1)N[C@@H]1C(=O)N2C(C(=O)[O-])=C(C[n+]3ccccc3)CS[C@H]12; assay: as §1
[33] = substrate: CC(=O)OCC1=C(C(=O)O)N2C(=O)[C@@H](NC(=O)Cc3cccs3)[C@H]2SC1; assay: (§2) Ratio of Kcat to Km for Escherichia coli wild type beta-lactamase Toho-1 assessed as compound hydrolysis by spectrophotometry
[34] = substrate: CO/N=C(\C(=O)N[C@@H]1C(=O)N2C(C(=O)O)=C(COC(C)=O)CS[C@H]12)c1csc(N)n1; assay: as §2
[35] = substrate: CO/N=C(\C(=O)N[C@@H]1C(=O)N2C(C(=O)O)=C(CSc3cnns3)CS[C@H]12)c1csc(N)n1; assay: as §2
[36] = substrate: C[C@H]1[C@H](NC(=O)/C(=N\OC(C)(C)C(=O)O)c2csc(N)n2)C(=O)N1S(=O)(=O)O; assay: as §2
[37] = substrate: O=C(Cc1cccs1)N[C@@H]1C(=O)N2C(C(=O)[O-])=C(C[n+]3ccccc3)CS[C@H]12; assay: as §2

`CC(=O)OCC1=C(C(=O)O)N2C(=O)[C@@H](NC(=O)Cc3cccs3)[C@H]2SC1` [CEPHALOTHIN] was tested, and the Km (Escherichia coli [1]) was 70 µM, the kcat (Escherichia coli [1]) was 200 s⁻¹ and the Km (Escherichia coli [2]) was 77 µM. It also gave a kcat (Escherichia coli [2]) of 370 s⁻¹, a Km (Escherichia coli [3]) of 140 µM and a kcat (Escherichia coli [3]) of 180 s⁻¹. For the same molecule, the Km (Escherichia coli [4]) was 120 µM, the kcat (Escherichia coli [4]) was 410 s⁻¹ and the Km (Escherichia coli [5]) was 98 µM. It also gave a kcat (Escherichia coli [5]) of 320 s⁻¹, a Km (Escherichia coli [6]) of 200 µM and a kcat (Escherichia coli [6]) of 780 s⁻¹. For the same molecule, the Km (Escherichia coli [7]) was 170 µM, the kcat (Escherichia coli [7]) was 690 s⁻¹ and the Km (Escherichia coli [8]) was 150 µM. It also gave a kcat (Escherichia coli [8]) of 620 s⁻¹, a kcat/Km (Escherichia coli [9]) of 1.2 ×10⁶ /s/M and a kcat/Km (Escherichia coli [10]) of 2.8 ×10⁶ /s/M. The kcat/Km (Escherichia coli [11]) was 4.8 ×10⁶ /s/M, the kcat/Km (Escherichia coli [12]) was 3.3 ×10⁶ /s/M and the kcat/Km (Escherichia coli [13]) was 3.3 ×10⁶ /s/M. It also gave a kcat/Km (Escherichia coli [14]) of 4 ×10⁶ /s/M, a kcat/Km (Escherichia coli [15]) of 4.1 ×10⁶ /s/M and a kcat/Km (Escherichia coli [16]) of 4.1 ×10⁶ /s/M. For the same molecule, the MIC (Escherichia coli [17]) was 2050 µg/mL (≈ 5.17 mM), the MIC (Escherichia coli [18]) was 512 µg/mL (≈ 1.29 mM) and the MIC (Escherichia coli [19]) was 2050 µg/mL (≈ 5.17 mM). It also gave an MIC (Escherichia coli [20]) of 2050 µg/mL (≈ 5.17 mM), an MIC (Escherichia coli [21]) of 2050 µg/mL (≈ 5.17 mM) and an MIC (Escherichia coli [22]) of 2050 µg/mL (≈ 5.17 mM). It also gave an MIC (Escherichia coli [23]) of 2050 µg/mL (≈ 5.17 mM), an MIC (Escherichia coli [24]) of 2050 µg/mL (≈ 5.17 mM) and an MIC (Escherichia coli [25]) of 128 µg/mL (≈ 0.323 mM). It also gave an MIC (Escherichia coli [26]) of 2 µg/mL (≈ 0.00504 mM).

B1: Beta-lactamase Toho-1 (Escherichia coli), Q47066 (protein)
chain: MMTQSIRRSMLTVMATLPLLFSSATLHAQANSVQQQLEALEKSSGGRLGVALINTADNSQILYRADERFAMCSTSKVMAAAAVLKQSESDKHLLNQRVEIKKSDLVNYNPIAEKHVNGTMTLAELGAAALQYSDNTAMNKLIAHLGGPDKVTAFARSLGDETFRLDRTEPTLNTAIPGDPRDTTTPLAMAQTLKNLTLGKALAETQRAQLVTWLKGNTTGSASIRAGLPKSWVVGDKTGSGDYGTTNDIAVIWPENHAPLVLVTYFTQPEQKAERRRDILAAAAKIVTHGF
In the case of B1, the Km [27] is reported as 190 µM, the kcat [27] is reported as 790 s⁻¹ and the Km [28] is reported as 24 µM. For the same molecule, the kcat [28] was 42 s⁻¹, the Km [29] was 210 µM and the kcat [29] was 390 s⁻¹. For the same molecule, the Km [30] was 150 µM, the kcat [30] was 530 s⁻¹ and the Km [31] was 45 µM. For the same molecule, the kcat [31] was 8.3 s⁻¹, the Km [32] was 280 µM and the kcat [32] was 420 s⁻¹. For the same molecule, the kcat/Km [33] was 4.3 ×10⁶ /s/M, the kcat/Km [34] was 1.9 ×10⁶ /s/M and the kcat/Km [35] was 3.5 ×10⁶ /s/M. The kcat/Km [36] was 1.9 ×10⁵ /s/M and the kcat/Km [37] was 1.5 ×10⁶ /s/M.
